# Source: patent US7915268B2, “8-substituted 2-(benzimidazolyl)purine derivatives for immunosuppression” (Wyeth LLC, priority 2006, dated 2011)
# Biological target: T1, Jak3 (Homo sapiens, UniProt P52333)
# T1 construct: catalytic domain of Jak3 (508aa to 1124aa); made in house; host or cells: Sf9 insect cells (baculovirus, pFastBac 1)
# T1 sequence (P52333 508-1124): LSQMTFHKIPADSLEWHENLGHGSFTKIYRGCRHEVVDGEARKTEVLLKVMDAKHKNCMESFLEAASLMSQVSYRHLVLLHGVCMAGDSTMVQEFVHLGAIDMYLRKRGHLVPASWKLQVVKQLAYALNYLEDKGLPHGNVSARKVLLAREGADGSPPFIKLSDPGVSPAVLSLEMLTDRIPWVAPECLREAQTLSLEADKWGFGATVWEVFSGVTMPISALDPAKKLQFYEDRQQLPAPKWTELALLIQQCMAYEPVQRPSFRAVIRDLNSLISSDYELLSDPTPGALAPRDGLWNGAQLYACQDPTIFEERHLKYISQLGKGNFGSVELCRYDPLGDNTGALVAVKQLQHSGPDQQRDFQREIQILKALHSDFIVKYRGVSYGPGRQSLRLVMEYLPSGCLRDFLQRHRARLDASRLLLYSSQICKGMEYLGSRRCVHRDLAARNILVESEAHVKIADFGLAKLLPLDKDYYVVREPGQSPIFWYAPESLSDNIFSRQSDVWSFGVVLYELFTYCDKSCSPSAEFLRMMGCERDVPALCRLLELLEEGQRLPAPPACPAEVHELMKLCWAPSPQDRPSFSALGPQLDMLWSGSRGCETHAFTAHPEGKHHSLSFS
# Assay: Jak3 Kinase Assay (HTRF, GST-Jak3 catalytic domain)
# Type: biochemical
# Conditions: 1 μM ATP, 60-min incubation, read-out: Jak 3 (Converted)
# Description: Human Jak3 cDNA was amplified by PCR. A fragment encoding the catalytic domain of Jak3 (508aa to 1124aa) was ligated with GST at 5′ end. This fused GST-Jak3 DNA fragment was cloned into the EcoRI site of the donor plasmid pFastBac 1 (Life Technologies #10359-016). The transformation, transposition, and transfection of insect cells (Sf9) were performed according to the manufacture's instructions. The cell lysate containing recombinant GST-Jak3 was used in the kinase assay. Anti-GST antibody (10 μg/ml, Sigma #G1417) was coated onto a 384-well plate at 4° C. overnight. Cell lysate containing GST-Jak3 (1:100 dilution) was added to the anti-GST coated plates, and GST-Jak3 was captured by immobilized anti-GST antibody. Testing compounds and substrate mix (50 mM HEPES, pH 7, 0.5 mM Na3VO4, 25 mM MgCl2, 1 mM DTT, 0.005% BSA, 1 μM ATP, and 4.5 μg/ml biotinyl poly-Glu, Ala, Tyr) were added to the plate to initiate the reaction. After a 60-min incubation, the reaction was stopped by 4 mM EDTA, and phosphorylation of biotinyl poly-Glu, Ala, Tyr was detected using 17 μg/ml Cy5-streptavidin (Amersham, #PA92005) and 2.7 μg/ml Europium-conjugated anti-phosphotyrosine antibody (PerkinElmer #AD0069) using homogeneous time-resolved fluorescence (HTRF) technology.
row,SMILES,IC50 [nM]
1,Fc1ccc2ncn(-c3ncc4nc(-c5ccccn5)n(C5CCOCC5)c4n3)c2c1 [Example 66],100 to 1000
2,Oc1ccccc1-c1nc2cnc(-n3cnc4ccc(F)cc43)nc2n1C1CCOCC1 [Example 44],100 to 1000
3,Fc1ccc2ncn(-c3ncc4nc(-c5cccnc5)n(C5CCOCC5)c4n3)c2c1 [Example 37],< 100
4,"Fc1ccc2ncn(-c3ncc4nc(-c5ncc[nH]5)n(C5CCOCC5)c4n3)c2c1 [Example 33, 2-(6-Fluoro-1H-benzo[d]imidazol-1-yl)-8-(1H-imidazol-2-yl)-9-(tetrahydro-2H-pyran-4-yl)-9H-purine]",100 to 1000
5,N#Cc1ccc2ncn(-c3ncc4nc(-c5ccccc5)n(C5CCOCC5)c4n3)c2c1 [Example 16],< 100
6,Fc1ccc2ncn(C3N=c4c(nc(-c5ccnc6ccccc56)n4C4CCOCC4)=CN3)c2c1 (centres unmarked) [Example 56],> 1000
7,CS(=O)(=O)Nc1cccc(-c2nc3cnc(-n4cnc5ccc(C#N)cc54)nc3n2C2CCOCC2)c1 [Example 14],< 100
8,Nc1nccc(-c2nc3cnc(-n4cnc5ccc(F)cc54)nc3n2C2CCOCC2)n1 [Example 53],< 100
9,N#Cc1ccc2ncn(-c3ncc4nc(-c5cncnc5)n([C@@H]5CCOc6ccccc65)c4n3)c2c1 [Example 11],< 100
10,O=c1ccc(-c2nc3cnc(-n4cnc5ccc(F)cc54)nc3n2C2CCOCC2)c[nH]1 [Example 61],100 to 1000
11,Fc1ccc2ncn(-c3ncc4nc(-c5ccoc5)n(C5CCOCC5)c4n3)c2c1 [Example 70],< 100
12,Nc1nccc(-c2nc3cnc(-n4cnc5ccc(Cl)cc54)nc3n2C2CCOCC2)n1 [Example 43],< 100
13,Oc1cccc(-c2nc3cnc(-n4cnc5ccc(F)cc54)nc3n2C2CCOCC2)c1 [Example 71],< 100
14,Cn1cccc1-c1nc2cnc(-n3cnc4ccc(F)cc43)nc2n1C1CCOCC1 [Example 50],100 to 1000
15,Fc1ccc2ncn(-c3ncc4nc(-c5cncnc5)n(C5CCOCC5)c4n3)c2c1 [Example 38],< 100
16,COc1ccc(-c2nc3cnc(-n4cnc5ccc(F)cc54)nc3n2C2CCOCC2)cn1 [Example 63],< 100
17,Fc1ccc2ncn(-c3ncc4nc(-c5ccncc5)n([C@@H]5CCOc6c(F)cccc65)c4n3)c2c1 [Example 49],< 100
18,Fc1ccc2ncn(-c3ncc4nc(-c5ccncc5)n(C5CCOCC5)c4n3)c2c1 [Example 32],< 100
19,CO[C@H]1CC[C@H](n2c(C)nc3cnc(-n4cnc5ccc(C#N)cc54)nc32)CC1 [Example 23],100 to 1000

row,SMILES,IC50 [nM]
1,Fc1ccc2ncn(-c3ncc4nc(-c5cncnc5)n([C@@H]5CCOc6c(F)cccc65)c4n3)c2c1 [Example 55],< 100
2,Fc1ccc2ncn(-c3ncc4nc(-c5ccc[nH]5)n(C5CCOCC5)c4n3)c2c1 [Example 62],< 100
3,Cc1cccc(-c2nc3cnc(-n4cnc5ccc(C#N)cc54)nc3n2C2CCOCC2)c1 [Example 12],100 to 1000
4,COC(=O)c1cccc(-c2nc3cnc(-n4cnc5ccc(F)cc54)nc3n2C2CCOCC2)c1 [Example 31],100 to 1000
5,COc1ccccc1-c1nc2cnc(-n3cnc4ccc(C#N)cc43)nc2n1C1CCOCC1 [Example 18],100 to 1000
6,Fc1cccc(-c2nc3cnc(-n4cnc5ccc(F)cc54)nc3n2C2CCOCC2)c1 [Example 67],100 to 1000
7,Cn1cncc1-c1nc2cnc(-n3cnc4ccc(F)cc43)nc2n1C1CCOCC1 [Example 39],< 100
8,CN(C)c1ncc(-c2nc3cnc(-n4cnc5ccc(C#N)cc54)nc3n2C2CCOCC2)cn1 [Example 17],< 100
9,Fc1ccc2ncn(-c3ncc4nc(-c5ccc(Br)cn5)n(C5CCOCC5)c4n3)c2c1 [Example 64],100 to 1000
10,Cc1nc2cnc(-n3cnc4ccc(C#N)cc43)nc2n1C1CCOc2ccc(F)cc21 (centres unmarked) [Example 24],< 100
11,Oc1cccc(-c2nc3cnc(-n4cnc5ccc(Cl)cc54)nc3n2C2CCOCC2)c1 [Example 40],< 100
12,Cc1nc2cnc(-n3cnc4ccc(F)cc43)nc2n1C1CCOCC1 [Example 72],< 100
13,Fc1ccc2ncn(-c3ncc4nc(-c5nccs5)n(C5CCOCC5)c4n3)c2c1 [Example 48],100 to 1000
14,Oc1cccc(-c2nc3cnc(-n4cnc5ccc(F)cc54)nc3n2[C@@H]2CCOc3c(F)cccc32)c1 [Example 28],100 to 1000
15,Fc1ccc2ncn(-c3ncc4nc(-c5ccc(C(F)(F)F)nc5)n(C5CCOCC5)c4n3)c2c1 [Example 51],< 100
16,O=C(O)c1cccc(-c2nc3cnc(-n4cnc5ccc(F)cc54)nc3n2C2CCOCC2)c1 [Example 45],< 100
17,Fc1ccc2ncn(-c3ncc4nc(-c5ccc(Cl)nc5)n(C5CCOCC5)c4n3)c2c1 [Example 47],< 100
18,Fc1ccc2ncn(-c3ncc4nc(-c5ccc(Br)nc5)n(C5CCOCC5)c4n3)c2c1 [Example 36],< 100

# Second part, the molecule after the results:
row,IC50 [nM],SMILES
1,100 to 1000,[O-][n+]1ccc(-c2nc3cnc(-n4cnc5ccc(F)cc54)nc3n2C2CCOCC2)cc1 [Example 88]
2,< 100,N#Cc1ccc2ncn(-c3ncc4nc(NCC5CCCO5)n(C5CCOCC5)c4n3)c2c1 (centres unmarked) [Example 93]
3,< 100,COc1cccc(Nc2nc3cnc(-n4cnc5ccc(C#N)cc54)nc3n2C2CCOCC2)c1 [Example 108]
4,< 100,"O[C@@H]1CC[C@@H](n2c(-c3cncnc3)nc3cnc(-n4cnc5ccc(F)cc54)nc32)c2ccccc21 [Example 112, (1R,4R)-4-(2-(6-Fluoro-1H-benzo[d]imidazol-1-yl)-8-(pyrimidin-5-yl)-9H-purin-9-yl)-1,2,3,4-tetrahydronaphthalen-1-ol]"
5,< 100,N#Cc1ccc2ncn(-c3ncc4nc(Nc5ccccc5F)n(C5CCOCC5)c4n3)c2c1 [Example 109]
6,100 to 1000,"Fc1ccc2ncn(-c3ncc4nc(Cc5ccccc5)n(C5CCOCC5)c4n3)c2c1 [Example 90, 8-Benzyl-2-(6-fluoro-1H-benzo[d]imidazol-1-yl)-9-(tetrahydro-2H-pyran-4-yl)-9H-purine]"
7,> 1000,c1ccc(Cn2c(-c3ccccc3)nc3cnc(-n4cnc5ccccc54)nc32)cc1 [Example 89]
8,< 100,"Cc1nc2cnc(-n3cnc4ccc(Cl)cc43)nc2n1[C@H](C)C(=O)NCC(F)(F)F [Example 92, (2R)-2-(2-(6-chloro-1H-benzo[d]imidazol-1-yl)-8-methyl-9H-purin-9-yl)-N-(2,2,2-trifluoroethyl)propanamide]"
9,< 100,Cc1nc2cnc(-n3cnc4ccc(Cl)cc43)nc2n1C1CCOCC1 [Example 74]
10,100 to 1000,Cc1ccc([C@@H](C)n2c(C)nc3cnc(-n4cnc5ccc(C#N)cc54)nc32)o1 [Example 99]
11,> 1000,"Fc1cccc2c1COCC2n1c(-c2ccccc2)nc2cnc(-n3cnc4ccccc43)nc21 (centres unmarked) [Example 86, 2-(1H-benzo[d]imidazol-1-yl)-9-(8-fluoroisochroman-4-yl)-8-phenyl-9H-purine]"
12,< 100,"CCNc1nc2cnc(-n3cnc4ccc(C#N)cc43)nc2n1C1CCOCC1 [Example 96, 3-(8-(ethylamino)-9-(tetrahydro-2H-pyran-4-yl)-9H-purin-2-yl)-3H-benzo[d]imidazole-5-carbonitrile]"
13,> 1000,COCCCn1c(-c2ccccc2)nc2cnc(-n3cnc4ccccc43)nc21 [Example 85]
14,100 to 1000,Cc1nc2cnc(-n3cnc4ccccc43)nc2n1C1COCc2c(F)cccc21 (centres unmarked) [Example 80]
15,100 to 1000,Cc1nc2cnc(-n3cnc4ccc(OC(F)(F)F)cc43)nc2n1[C@@H]1CCOc2c(F)cccc21 [Example 75]
16,< 100,N#Cc1ccc2ncn(-c3ncc4nc(Nc5cccnc5)n([C@@H]5CCOc6ccccc65)c4n3)c2c1 [Example 104]
